{"source": "patent US20260053811A1", "about": "“METHODS OF TREATING HYPERTENSION IN OBESE SUBJECTS” (Mineralys Therapeutics, Inc., priority 2022, published 2026)", "test_system": "hypertensive subjects", "assay": "Seated automated office blood pressure (AOBP) in randomized, placebo-controlled, dose-ranging study", "assay_type": "in vivo, human", "conditions": "for Placebo-adjusted reduction in AOBP SBP, exploratory MMRM analysis by BMI: data not shown; for Mean (SD) Automated Office-Measured Systolic Blood Pressure at Wk 8 / Mean (SD) Change from Baseline at Week 8 in Automated Office-Measured Systolic Blood Pressure / Mean (SD) Automated Office-Measured Diastolic Blood Pressure at Wk 8 / Mean (SD) Change from Baseline at Week 8 in Automated Office-Measured Diastolic Blood Pressure: Part 1, 12.5 mg BID", "procedure": "A randomized, double-blinded, placebo-controlled, dose-ranging, multicenter study was conducted to evaluate the effect of orally administered Compound A HBr on blood pressure for the treatment of hypertension in male and female subjects ≥18 years of age.\nThe study consists of two parts. For enrollment into Part 1 of the study, a subject's value of plasma renin activity (PRA) must be ≤1 ng/mL/h based on morning measurement. If the value of PRA >1 ng/mL/h based on morning measurement, then subjects may be eligible to enter Part 2 of the study.\nFor Part 1, 163 enrolled subjects ≥18 years of age were randomized into 6 equal treatment groups (1:1:1:1:1:1) to 12.5 mg BID, 25 mg BID, 12.5 mg QD, 50 mg QD, 100 mg QD, or placebo. After a review of interim clinical data, the 2 lowest dose levels (12.5 mg QD and 12.5 mg BID) were stopped for future randomization due to a lack of consistent meaningful reduction of blood pressure, but the patients randomized to that point remained in the study through completion. Thus, after the review of interim clinical data, subjects were randomized into 4 equal treatment groups (1:1:1:1) to 25 mg BID, 50 mg QD, 100 mg QD, or placebo.\nFor Part 2, 36 enrolled subjects ≥18 years of age were randomized (5:1) to either 100 mg QD Compound A HBr or placebo such that the Compound A HBr treatment group consisted of approximately 30 subjects and the placebo treatment group will consist of approximately 6 subjects.\nSubjects orally administered the assigned study drug (Compound A HBr or placebo) according to the assigned dosing regimen for 8 weeks beginning on Study Day 1. All subjects in Part 1 (regardless of dosing group) received BID dosing to preserve the integrity of the blind; active drug is administered as the morning dose for all QD dose groups. Subjects returned to the research facility or were seen by the clinical investigator or approved home health care professional at the end of Study Weeks 1, 2, 3, 4, 5, 6, 7, and 8 (±2 days) for protocol-defined efficacy and safety assessments and procedures, assessment of adverse events (AEs), and confirmation of compliance with study drug usage. Subjects also completed a telephone visit and blood pressure (BP) check at home approximately 3 days post last dose of study drug. Subjects attended up to 14 full clinic visits, including a pre-Screening visit, a Screening/start of Placebo Run-in visit, a second visit during Placebo Run-in, a clinic visit to initiate the ABPM procedure, a Randomization visit, 8 weekly visits during double-blind treatment, and an end-of-study visit scheduled 4 weeks after the last study treatment for final efficacy and safety assessments.\nAn automated oscillometric sphygmomanometer device was used to measure the subjects' systolic and diastolic blood pressure in office after approximately 5 minutes of rest in the seated position.\nThe primary endpoint is the change in office-measured (mean of last 2 of 5 unattended measurements using an automated oscillometric sphygmomanometer device after approximately 5 minutes of rest in the seated position) systolic blood pressure (SBP) from baseline to the end of Study Week 8.\nSecondary endpoints of this study were: • (a) Change in 24-hour ambulatory blood pressure monitoring (ABPM) parameters (systolic and diastolic) from baseline to the end of Study Week 7. • (b) Change in office-measured SBP from baseline to the end of Study Weeks 1, 2, 3, 4, 5, 6, and 7. • (c) Change in office-measured diastolic blood pressure (DBP) from baseline to the end of Study Weeks 1, 2, 3, 4, 5, 6, 7, and 8. • (d) Proportion of subjects who achieve office-measured BP of ≤130/80 mm Hg by the end of Study Week 8."}
{"smiles": "CC(=O)N[C@H]1CC[C@H](NC(=O)CN2CCN(c3nncc(-c4ccc(C)cc4)n3)CC2)CC1", "note": "[Compound A HBr]", "values": [{"measurement": "Subjects with seated AOBP SBP/DBP ≤130/80 mmHg: No", "setting": "100 mg QD, Week 8, Part 2, FAS", "result": "14 (45.2) n (%)"}, {"measurement": "Subjects with seated AOBP SBP/DBP ≤130/80 mmHg: Yes", "setting": "100 mg QD, Week 8, Part 2, FAS", "result": "17 (54.8) n (%)"}, {"measurement": "Placebo-adjusted reduction in AOBP SBP, exploratory MMRM analysis by BMI", "setting": "Part 1 50 mg QD cohort", "result": "−16.7", "unit": "mmHg"}, {"measurement": "Placebo-adjusted reduction in AOBP SBP, exploratory MMRM analysis by BMI", "setting": "Part 1 100 mg QD cohort", "result": "−12.3", "unit": "mmHg"}, {"measurement": "Mean (SD) Automated Office-Measured Systolic Blood Pressure at Wk 8", "setting": "ACEi/ARB No", "result": "131.50 (16.22) mmHg"}, {"measurement": "Mean (SD) Change from Baseline at Week 8 in Automated Office-Measured Systolic Blood Pressure", "setting": "ACEi/ARB No", "result": "−18.75 (21.77) mmHg"}, {"measurement": "Mean (SD) Automated Office-Measured Systolic Blood Pressure at Wk 8", "setting": "ACEi/ARB Yes", "result": "132.00 (12.59) mmHg"}, {"measurement": "Mean (SD) Change from Baseline at Week 8 in Automated Office-Measured Systolic Blood Pressure", "setting": "ACEi/ARB Yes", "result": "−12.47 (17.09) mmHg"}, {"measurement": "Mean (SD) Automated Office-Measured Diastolic Blood Pressure at Wk 8", "setting": "ACEi/ARBs No", "result": "76.25 (12.37) mmHg"}, {"measurement": "Mean (SD) Change from Baseline at Week 8 in Automated Office-Measured Diastolic Blood Pressure", "setting": "ACEi/ARBs No", "result": "−4.00 (8.79) mmHg"}, {"measurement": "Mean (SD) Automated Office-Measured Diastolic Blood Pressure at Wk 8", "setting": "ACEi/ARBs Yes", "result": "74.93 (9.86) mmHg"}, {"measurement": "Mean (SD) Change from Baseline at Week 8 in Automated Office-Measured Diastolic Blood Pressure", "setting": "ACEi/ARBs Yes", "result": "−6.33 (9.02) mmHg"}, {"measurement": "Mean (SD) Automated Office-Measured Diastolic Blood Pressure at Wk 8", "setting": "AHTs 2", "result": "79.67 (11.78) mmHg"}, {"measurement": "Mean (SD) Automated Office-Measured Systolic Blood Pressure at Wk 8", "setting": "AHTs 2", "result": "136.33 (11.76) mmHg"}, {"measurement": "Mean (SD) Change from Baseline at Week 8 in Automated Office-Measured Diastolic Blood Pressure", "setting": "AHTs 2", "result": "−5.25 (7.78) mmHg"}, {"measurement": "Mean (SD) Change from Baseline at Week 8 in Automated Office-Measured Systolic Blood Pressure", "setting": "AHTs 2", "result": "−8.33 (13.28) mmHg"}, {"measurement": "Mean (SD) Automated Office-Measured Diastolic Blood Pressure at Wk 8", "setting": "AHTs ≥3", "result": "73.15 (8.93) mmHg"}, {"measurement": "Mean (SD) Automated Office-Measured Systolic Blood Pressure at Wk 8", "setting": "AHTs ≥3", "result": "129.85 (13.37) mmHg"}, {"measurement": "Mean (SD) Change from Baseline at Week 8 in Automated Office-Measured Diastolic Blood Pressure", "setting": "AHTs ≥3", "result": "−6.12 (9.49) mmHg"}, {"measurement": "Mean (SD) Change from Baseline at Week 8 in Automated Office-Measured Systolic Blood Pressure", "setting": "AHTs ≥3", "result": "−16.31 (19.35) mmHg"}, {"measurement": "Mean (SD) Automated Office-Measured Diastolic Blood Pressure at Wk 8", "setting": "Age 65-79 yr", "result": "76.18 (7.87) mmHg"}, {"measurement": "Mean (SD) Automated Office-Measured Systolic Blood Pressure at Wk 8", "setting": "Age 65-79 yr", "result": "135.73 (11.26) mmHg"}, {"measurement": "Mean (SD) Change from Baseline at Week 8 in Automated Office-Measured Diastolic Blood Pressure", "setting": "Age 65-79 yr", "result": "−3.18 (7.91) mmHg"}, {"measurement": "Mean (SD) Change from Baseline at Week 8 in Automated Office-Measured Systolic Blood Pressure", "setting": "Age 65-79 yr", "result": "−12.77 (19.08) mmHg"}, {"measurement": "Mean (SD) Automated Office-Measured Diastolic Blood Pressure at Wk 8", "setting": "Age <65 yr", "result": "79.17 (9.58) mmHg"}, {"measurement": "Mean (SD) Automated Office-Measured Systolic Blood Pressure at Wk 8", "setting": "Age <65 yr", "result": "132.17 (11.13) mmHg"}, {"measurement": "Mean (SD) Change from Baseline at Week 8 in Automated Office-Measured Diastolic Blood Pressure", "setting": "Age <65 yr", "result": "−5.67 (5.02) mmHg"}, {"measurement": "Mean (SD) Change from Baseline at Week 8 in Automated Office-Measured Systolic Blood Pressure", "setting": "Age <65 yr", "result": "−6.92 (7.84) mmHg"}, {"measurement": "Mean (SD) Automated Office-Measured Diastolic Blood Pressure at Wk 8", "setting": "Age ≥80 yr", "result": "58.00 (7.07) mmHg"}, {"measurement": "Mean (SD) Automated Office-Measured Systolic Blood Pressure at Wk 8", "setting": "Age ≥80 yr", "result": "110.00 (1.41) mmHg"}, {"measurement": "Mean (SD) Change from Baseline at Week 8 in Automated Office-Measured Diastolic Blood Pressure", "setting": "Age ≥80 yr", "result": "−21.00 (9.90) mmHg"}, {"measurement": "Mean (SD) Change from Baseline at Week 8 in Automated Office-Measured Systolic Blood Pressure", "setting": "Age ≥80 yr", "result": "−40.00 (4.24) mmHg"}, {"measurement": "Mean (SD) Automated Office-Measured Diastolic Blood Pressure at Wk 8", "setting": "BMI 25−30 kg/m^2", "result": "71.75 (9.07) mmHg"}, {"measurement": "Mean (SD) Change from Baseline at Week 8 in Automated Office-Measured Diastolic Blood Pressure", "setting": "BMI 25−30 kg/m^2", "result": "−8.00 (7.56) mmHg"}, {"measurement": "Mean (SD) Automated Office-Measured Diastolic Blood Pressure at Wk 8", "setting": "BMI <25 kg/m^2", "result": "92.00 (NE) mmHg"}, {"measurement": "Mean (SD) Change from Baseline at Week 8 in Automated Office-Measured Diastolic Blood Pressure", "setting": "BMI <25 kg/m^2", "result": "6.00 (NE) mmHg"}, {"measurement": "Mean (SD) Automated Office-Measured Diastolic Blood Pressure at Wk 8", "setting": "BMI >30 kg/m^2", "result": "75.00 (9.80) mmHg"}, {"measurement": "Mean (SD) Change from Baseline at Week 8 in Automated Office-Measured Diastolic Blood Pressure", "setting": "BMI >30 kg/m^2", "result": "−6.07 (9.01) mmHg"}, {"measurement": "Mean (SD) Automated Office-Measured Systolic Blood Pressure at Wk 8", "setting": "BMI at baseline 25-30 kg/m^2", "result": "125.50 (14.89) mmHg"}, {"measurement": "Mean (SD) Change from Baseline at Week 8 in Automated Office-Measured Systolic Blood Pressure", "setting": "BMI at baseline 25-30 kg/m^2", "result": "−23.88 (24.55) mmHg"}, {"measurement": "Mean (SD) Automated Office-Measured Systolic Blood Pressure at Wk 8", "setting": "BMI at baseline <25 kg/m^2", "result": "150.00 (NE) mmHg"}, {"measurement": "Mean (SD) Change from Baseline at Week 8 in Automated Office-Measured Systolic Blood Pressure", "setting": "BMI at baseline <25 kg/m^2", "result": "2.50 (NE) mmHg"}, {"measurement": "Mean (SD) Automated Office-Measured Systolic Blood Pressure at Wk 8", "setting": "BMI at baseline >30 kg/m^2", "result": "132.43 (11.93) mmHg"}, {"measurement": "Mean (SD) Change from Baseline at Week 8 in Automated Office-Measured Systolic Blood Pressure", "setting": "BMI at baseline >30 kg/m^2", "result": "−12.07 (15.48) mmHg"}, {"measurement": "Mean (SD) Automated Office-Measured Diastolic Blood Pressure at Wk 8", "setting": "Race Black or AA", "result": "79.14 (8.49) mmHg"}, {"measurement": "Mean (SD) Automated Office-Measured Systolic Blood Pressure at Wk 8", "setting": "Race Black or AA", "result": "137.71 (13.50) mmHg"}]}
